Counter-ions that a name gives are not always drawn. Marks after values point to notes of the source that are not given here.
Legend:
[1] = test system: excretion of phenol red (secretory function of the respiratory tract); assay: Effect on excretion of phenol red in mice; type: in vivo, Kunming mice; settings: for Phenol red concentration: oral gavage 2 days, trachea wash 30 min after i.p. phenol red, n = 10
Method: Kunming mice, female:male 1:1, weight 30-40 g, available from Guangdong Medical Laboratory Animal Center. […] Hitachi 3010 UV and visible spectrophotometer. […] After 30 min, the mice were sacrificed, and the trachea was detached. A section of the trachea from the thyroid cartilage to a branch of the trachea was excised, and placed in a test tube containing 3 ml of saline, to which 0.1 ml of a 15% sodium bicarbonate solution was then added. After centrifugation, the supernatant was taken and measured for the OD value at 546 nm. The phenol red content was calculated from a phenol red standard curve.

[2] = Effect of naringin in combination with other drugs; settings: used in combination with naringin
[3] = test system: ovalbumin induced atopic cough (cough variant asthma); assay: Capsaicin induced cough in ovalbumin induced atopic cough (cough variant asthma) model; type: in vivo, Hartley guinea pig; settings: ovalbumin-challenged guinea pigs, 7 days dosing, 50 μmol/L capsaicin 1 hr after last dose, coughs in 10 min, n = 10
Method: (§1) 2.2 Modeling: except for the normal control group, the guinea pigs in the remaining groups were challenged by intraperitoneally injecting cyclophosphamide at a dosage of 30 mg/kg at day 1, intraperitoneally injecting 1 mL of a suspension containing 2 mg ovalbumin and 100 mg aluminium hydroxide at day 3, and injecting 1 mL of a suspension containing 0.01 mg ovalbumin and 100 mg aluminium hydroxide after 3 weeks. The guinea pigs in the normal control group were intraperitoneally injected with 1 mL of saline. After 3 weeks, all the animals for modeling were challenged by nebulization of a 1% ovalbumin solution for 90 s, and the animals in the normal control group inhaled saline for 90 s by nebulization.
(§2) The cough of guinea pig were counted as follows. 1 hr after the last dose, the guinea pigs were placed in a Buxco cough recorder, and induced to cough by using 1 mL of 50 μmol/L capsaicin, and the cough counts in 10 min (including the nebulization time) were recorded.

[4] = test system: citric acid induced cough; assay: Inhibition on citric acid induced cough in guinea pig; type: in vivo, Hartley guinea pigs
Method: 1.1 Test animals: qualified Hartley guinea pigs, weight 250-300 g, female:male 1:1, available from Guangdong Medical Laboratory Animal Center.
1.3 Instrument: YLS-8A cough and asthma inducing instrument (a product available from Equipment Station of Shandong Academy of Medical Sciences).
The guinea pigs in each group were administered by oral gavage at a dosage of 0.5 ml/100 g of body weight, and equal volume of saline was given to the animals in the blank control group. 1 h after administration by oral gavage, the animals received spray of citric acid for 7 min. After the spray was completed, the cough counts were observed and recorded in ten minutes from the start of the spray (the typical cough is loud and clear and often accompanied by a forward rush).

[5] = test system: acemecholine (MeCh) induced airway hyperresponsiveness; assay: Airway responsiveness (Penh) under MeCh challenge in ovalbumin cough variant asthma model; type: in vivo, Hartley guinea pig; settings: Penh % relative to normal saline challenge, n = 10
Method: as §1, §2
2.4 Determination of airway responsiveness (AR) in guinea pig: 24 hrs after cough determination, the enhanced pause (Penh) of guinea pig was determined in the Buxco whole body plethysmograph, and the variation in Penh after challenge by nebulization of acemecholine (MeCh) was measured.
The acemecholine (MeCh) concentrations used for challenging were respectively, from low to high, 100 mg/L, 200 mg/L, 400 mg/L, 800 mg/L, and 1600 mg/L. The average Penh upon challenge with each level of MeCh was recorded, and converted into percentages (Penh %) relative to the Penh value upon challenge with normal saline (NS), which was used as an evaluation criterion for AR.

[6] = test system: inflammatory cells in bronchial alveolar lavage fluid; assay: Differential leukocyte counts in bronchial alveolar lavage fluid, ovalbumin cough variant asthma model; type: in vivo, Hartley guinea pig; settings: BALF
Method: as §1, §2
2.5 Bronchoalveolar lavage and differential leukocyte counts in bronchial alveolar lavage fluid (BALF): After AR determination, the guinea pigs were anesthetized with 30 mg/kg of pentobarbital sodium. Then, the neck skin was cut, and a median incision was made on the trachea, in which a tracheal cannula was inserted. Bronchoalveolar lavage was performed with 5 mL of saline. This was repeated 3 times, and the bronchial alveolar lavage fluid was collected. All the bronchial alveolar lavage fluid was centrifuged at 4° C. and 1500 rpm for 10 min, and the supernatant was stored at −80° C. for later use.

**Q.** Which Phenol red concentration [1] does the source give for Nc1c(Br)cc(Br)cc1CN[C@H]1CC[C@H](O)CC1 [Ambroxol, ambroxol] here?
**A.** The Phenol red concentration was 1.55 ± 0.46 ^ μg/ml.

**Q.** With NC1=NCC2c3ccccc3Cc3ccccc3N12 (centres unmarked) [epinastine hydrochloride] as the molecule, how does the “Synergistic effect in combination with naringin” value (“Synergistic effect” for short) [2] read?
**A.** The value was “no synergistic effect”.

**Q.** With CN(c1nccc(=O)[nH]1)C1CCN(c2nc3ccccc3n2Cc2ccc(F)cc2)CC1 [mizolastine] as the molecule, how does the “Synergistic effect” value [2] read?
**A.** The value was “no synergistic effect”.

**Q.** For CN(C)CCC(c1ccc(Cl)cc1)c1ccccn1 (centres unmarked) [chlorpheniramine maleate], which “Synergistic effect” value [2] is on record?
**A.** The value was “no synergistic effect”.

**Q.** Which “Synergistic effect” value [2] does the source give for CCOC(=O)N1CCC(=C2c3ccc(Cl)cc3CCc3cccnc32)CC1 [loratadine] here?
**A.** Its value is “no synergistic effect”.

**Q.** With dimenhydrinate hydrochloride as the molecule, how does the “Synergistic effect” value [2] read?
**A.** Its value is “no synergistic effect”.

**Q.** Which “Synergistic effect” value [2] does the source give for Clc1ccc2c(c1)CCc1cccnc1C2=C1CCNCC1 [desloratadine] here?
**A.** Its value is “no synergistic effect”.

**Q.** For C[C@@H]1O[C@@H](O[C@H]2[C@H](Oc3cc(O)c4c(c3)O[C@H](c3ccc(O)cc3)CC4=O)O[C@H](CO)[C@@H](O)[C@@H]2O)[C@H](O)[C@H](O)[C@H]1O [Naringin, naringin], which “Effect on excretion of phenol red / sputum reducing effect (in words)” value [1] is on record?
**A.** The value was “obviously enhance the excretion of phenol red”.

**Q.** And the Phenol red concentration [1]?
**A.** Its Phenol red concentration is 1.64 ± 0.67 ^ μg/ml.

**Q.** And the Cough counts [3]?
**A.** The Cough counts was 12.9 ± 4.3 ^.

**Q.** What about the “Cough relieving effect (in words)” value ([4]; citric acid induced cough) of the same molecule?
**A.** Its value is “obvious cough relieving effect”.

**Q.** And the Cough count ([4]; oral gavage, citric acid spray 7 min 1 h after dosing, coughs in ten minutes, n = 8)?
**A.** The Cough count was 22.4 ± 3.7 ^.

**Q.** And the “Airway responsiveness under challenge with MeCh” value (shortened to “Airway responsiveness”) ([5]; MeCh 100 mg/L)?
**A.** Its value is 276 ± 69.

**Q.** What about the “Airway responsiveness” value ([5]; MeCh 200 mg/L) of the same molecule?
**A.** Its value is 783 ± 147.

**Q.** What about the “Airway responsiveness” value ([5]; MeCh 400 mg/L) of the same molecule?
**A.** The value was 857 ± 108.

**Q.** What about the “Airway responsiveness” value ([5]; MeCh 800 mg/L) of the same molecule?
**A.** The value was 1636 ± 169.

**Q.** What about the “Airway responsiveness” value ([5]; MeCh 1600 mg/L) of the same molecule?
**A.** Its value is 2749 ± 253.

**Q.** What about the “Reduction of total leukocyte, lymphocyte, neutrophil and eosinophil counts (in words)” value [6] of the same molecule?
**A.** Its value is “significantly reduce”.

**Q.** What about the Lymphocyte counts ([6]; guinea pigs, n = 10) of the same molecule?
**A.** The Lymphocyte counts was 21.5 ± 3.7** 10^7/L.

**Q.** And the Neutrophil counts ([6]; guinea pigs, n = 10)?
**A.** Its Neutrophil counts is 30.1 ± 6.5** 10^7/L.

**Q.** And the Total leukocyte counts ([6]; guinea pigs, n = 10)?
**A.** The Total leukocyte counts was 135.5 ± 28.6** 10^7/L.

**Q.** With theohydramine hydrochloride as the molecule, how does the “Synergistic effect” value [2] read?
**A.** The value was “no synergistic effect”.

**Q.** With CN1CCCC(n2nc(Cc3ccc(Cl)cc3)c3ccccc3c2=O)CC1 (centres unmarked) [azelastine hydrochloride] as the molecule, how does the “Synergistic effect” value [2] read?
**A.** The value was “no synergistic effect”.

Reference: patent US20160303156A1 (priority 2014, published 2016)
